Here are results for one compound from US6641843B1, “Pharmaceutical compositions” (SmithKline Beecham Corporation, priority 1998, dated 2003).

The nature of this data set: Stability and excipient compatibility of the compound in oral solution. The format is physicochemical. From the text:
Solutions of (1S,4R)-cis-4-[2-amino-6-cyclopropylamino)-9H-purin-9-yl]-2-cyclopentene-1-methanol are bitter-tasting and therefore require the addition of sweeteners and taste-maskers. However, formulation of (1S,4R)-cis-4-[2-amino-6-cyclopropylamino)-9H-purin-9-yl]-2-cyclopentene-1-methanol in solution is difficult because materials containing a —COOH group present problems with (1S,4R)-cis-4-[2-amino-6-cyclopropylamino)-9H-purin-9-yl]-2-cyclopentene-1-methanol compatibility.
Advantageously, the pH may be 3.8 to 4.5.

`Nc1nc(NC2CC2)c2ncn([C@H]3C=C[C@@H](CO)C3)c2n1` [abacavir]: where the note is “in solution”, the “adduct formation with sorbitol and/or saccharin” value is on record as “do not lead to the formation of adducts”; the “compatibility with combinations of fructose, acesulfame and saccharin” value is given as “compatible”; the “compatibility with sorbitol or saccharin or a combination of sorbitol and saccharin” value is on record as “compatible”. For the same compound, the “adduct formation with glucose” value (in solution, glucose replaces the methanol group on the cyclopentyl ring) was “forms an adduct”. In addition, the “compatibility with sucrose and glucose” value (in solution, sucrose degrades to glucose and fructose) was “incompatible”. Also, the “effect of addition of a metal chelator on stability in solution” value (metal chelator, for example citrate) was “improves the stability”. Besides, the “appearance of solutions containing sorbitol” value (pH 4.5-6.5) is “color change and the formation of dark colored particulates”. In addition, for the setting “pH lowered to about 4.0”, the “effect of lowering the pH on color change and particulates” value was “eliminates the color change and the formation of particulates”.
